Source: patent publication US10004761B2, “Malodor neutralizing composition” (priority 2016, dated 2018)

Key:
[1] = TMA malodor neutralization by myrac aldehyde, evaluated by smelling
Procedure: The experimental system for following the neutralization of an exemplary malodorous compound trimethylamine (TMA) by an exemplary malodor neutralizing agent aldehyde myrac aldehyde, was based on assaying the CHO functional group using the Park-Johnson method [Park, J. T. and Johnson, M. J., J. Biol. Chem., 1949, 181, p. 149]. TMA levels were analyzed using Siemens Multistix 10 SG reagent strips.
Determination of the concentration of myrac aldehyde needed to neutralize TMA malodor was evaluated by smelling 2 ml samples of an aqueous solution containing 2 mM TMA (4 micromole of TMA in 2 ml of water). […]

[2] = HA gelation consistency (Method III) with inhibitors, no Hyase; type: physicochemical; conditions: for Consistency: Table 8: HA 1% 2cc + 20 μL inhibitor stock
Procedure: Method III (Viscosity of HA): HA at low concentrations (e.g., 1%) in aqueous solution forms a viscous colloidal hydrogel solution, which yields semi-solid gel particles at room temperature and a solid gel at 4° C.
HA degradation was evaluated using Method III, as described hereinabove.
HA Gelation in the presence of Hyase Inhibitors, without Hyase was studied while using the following Stock solutions:
To each tube containing 2 mL of 1% HA one of the following inhibitors: SCG, Tranilast, and Glutathione (100 μL of each), and NAC (50 μL) was added. […] No Hyase was present.
Using the same protocols as above, HA degradation was tested following incubation of HA (2 ml of a 1% Stock solution) and a Hyase inhibitor (20 μL of a stock solution as described hereinabove), at 37° C., in the presence and absence of Hyase.

[3] = test system: hyaluronidase Type IV-S, from bovine testes (Hyase); test: Dische's assay (Method II) of HA degradation by Hyase with inhibitors; type: biochemical; conditions: for % HA degraded: 20 μL inhibitor stock incubated 2 h with 20 μL Hyase, then HA 200 μL; for % HA degraded / % HA intact (precipitated): room temperature 24 h; for % of inhibition of HA degradation: derived from Table 1; for % HA intact (precipitated): represents % of Hyase inhibition, 20 μL inhibitor, 20 μL Hyase, HA 200 μL
Procedure: Method II (Dische's assay; detection of uronic acid residues): Assays were performed by following the procedures described in Dische Z. [J. Biol. Chem., 1947, 167, p. 189-198] and Dische and Rothschild [Anal Biochem., 1967, 21(1), p. 125-30]. In these assays, molecules containing the uronic acid residues found in the precipitate formed upon CPC additions, are re-solubilized and products formed by -sulfuric acid hydrolysis of these fragments are detected by a spectrophotometric assay employing carbazole chromagen reagent. In addition, small residues degraded off the HA chains that have not precipitated with the addition of CPC, can be detected by the carbazole assay performed on the solution, so as to detect all of the uronic acid content.
Evaluation of HA degradation by this method was generally performed as follows:
20 μL of a NAC stock solution, and 20 μL of the stock solutions of the other inhibitors were used in the assay.
200 μL of the HA stock solution were placed in each tube, for achieving a 1 mg HA per tube.
Twenty (20) μL of hyase and 20 μL of NAC were combined and incubated for 2 hours. Then 200 μL of HA (1 mg) were added to each tube and the mixture was incubated at room temperature for 24 hours. Thereafter, the tubes were heated for 2 minutes in boiling water bath and 8 mL of doubled distilled water were added to the tubes as preparation for the Dische's assay.
As per Dische's Assay, 100 μL of 3N NaCl and 0.5 mL of 10% CPC (cetylpyridinium chloride) were thereafter added to each tube and the mixture was incubated at 37° C. until flocculation-turbidity (resulting from precipitation of HA+CPC) could be observed. The mixture was centrifuged for 10 minutes at 10,000 g at room temperature, and the supernatant was thereafter separated from the obtained pellet.
The pellet was dissolved in 1 ml of CaCl2, and the obtained solution was incubated at 37° C. until complete dissolution of the pellet is obtained. A 2:1 v/v ethanol/ether mixture (8 ml) was thereafter added, and the mixture was intensively stirred (by vortex) and kept at −20° C. overnight. The obtained pellet was collected following a centrifugation for 10 minutes at 10,000 g. Then, distilled water (1 mL) was added to solubilize the pellet, followed by addition of 0.2 ml Carbazole 1%. The mixture was stirred thoroughly, and concentrated sulfuric acid (6 mL) was thereafter added.
The samples were transferred into tight closed tubes, placed for 10 minutes in a boiling water bath, and was thereafter cooled in ice until it reached room temperature.
The pink-violet color developed by the chromogen was measured using a spectrophotometer at 527 nm.
Ditch assay, as described hereinabove (Method II) was performed while using the following Hyase inhibitors:
The experiment was run at room temperature (23° C.). Hyase and Inhibitors were incubated first for 2 hours prior to the addition of HA. Blank tubes included no substrate (HA) and Control tubes included no enzyme, no inhibitor and HA (200 μL). Tubes 5 and 6 contained HA and Hyase with no inhibitor. Standard Solutions with no enzyme and no inhibitor and HA 50 μL and 10 μL were also tested, for calibration. % HA cleaved denotes the weight percent of HA that was degraded. % HA residue denotes the weight percent of non-degraded HA, and represents the % of Hyase inhibition.

| Structure (SMILES) | concentration from which the scent of myrac aldehyde is perceived and masks the smell of TMA ([1]; 2 mM TMA in water) [%] | concentration of myrac aldehyde that can neutralize the smell of TMA ([1]; 2 mM TMA in water) | Perceived scent ([1]; Sample 1: 2 μl aldehyde in 2 ml TMA 2 mM solution, 0.1 percent aldehyde) | Perceived scent ([1]; Sample 2: 10 μl aldehyde in 2 ml TMA 2 mM solution, 0.5 percent aldehyde) | Perceived scent ([1]; Sample 3: 20 μl aldehyde in 2 ml TMA 2 mM solution, 1 percent aldehyde) | Perceived scent ([1]; Sample 4: 40 μl aldehyde in 2 ml TMA 2 mM solution, 2 percent aldehyde) | Perceived scent ([1]; Sample 5: 80 μl aldehyde in 2 ml TMA 2 mM solution, 4 percent aldehyde) | Perceived scent ([1]; Sample 6: 100 μl aldehyde in 2 ml TMA 2 mM solution, 5 percent aldehyde) | Perceived scent ([1]; Sample 7: 200 μl aldehyde in 2 ml TMA 2 mM solution, 10 percent aldehyde) | Perceived scent ([1]; Sample 8: 300 μl aldehyde in 2 ml TMA 2 mM solution, 15 percent aldehyde) | Perceived scent ([1]; Sample 9: 400 μl aldehyde in 2 ml TMA 2 mM solution, 20 percent aldehyde) | Consistency ([2]; at 4° C.) | Consistency ([2]; at 37° C.) | % HA degraded [3] [%] | % of inhibition of HA degradation [3] [%] | % HA intact (precipitated) [3] [%] | HA gel consistency ([2]; 2 mL 1% HA + inhibitor stock (100 μL; NAC 50 μL), 37° C. 24 hours) |
| --- | --- | --- | --- | --- | --- | --- | --- | --- | --- | --- | --- | --- | --- | --- | --- | --- | --- |
| CC(C)=CCCC1=CCC(C=O)CC1 (stereo not shown) [myrac aldehyde, 4-(4-methylpent-3-enyl)cyclohex-3-ene-1-carbaldehyde] | ≥ 4 | about 2% | Strong fishy | fishy | Faint fishy | No scent | Faint myrac | Myrac | Myrac | Strong Myrac | Strong myrac | – | – | – | – | – | – |
| O=C(O)c1cc(=O)c2c(OCC(O)COc3cccc4oc(C(=O)O)cc(=O)c34)cccc2o1 [Cromoglycate, sodium Cromoglycate] | – | – | – | – | – | – | – | – | – | – | – | Solid (for a solid the results were in the range of 80-100 Pa S and higher) | Semisolid (for a semi-solid in the range of 50-70 Pa S) | 96.7 | 3.3 | 3.3 | – |
| N[C@@H](CCC(=O)N[C@@H](CS)C(=O)NCC(=O)O)C(=O)O [Glutathione, Reduced Glutathione] | – | – | – | – | – | – | – | – | – | – | – | Solid (for a solid the results were in the range of 80-100 Pa S and higher) | Viscous liquid (for a viscous liquid in the range of 1-10 Pa S) | 82 | 18 | 18 | viscous liquid |
